Laboratory results as given in publication PMC3269522 (2011).

Molecular target: CyaB (Pseudomonas aeruginosa, UniProt Q9HZ23)
Test: adenylyl cyclase activity assay with purified enzyme
Type: biochemical

KH7.148
IC50: ~10 µM
